Tests used:
[1] = molecular target: Serine/threonine-protein kinase N2 (Homo sapiens) (UniProt Q16513); experiment: Inhibition of human PKN2 (E634 to C948 residues) expressed in bacterial expression system assessed as residual activity at 50 nM by KINOMEscan assay relative to control
[2] = molecular target: Bone morphogenetic protein receptor type-1A (Homo sapiens) (UniProt P36894); experiment: Inhibition of wild-type human partial length BMPR1A (Q214 to I532 residues) expressed in bacterial expression system assessed as residual activity at 50 nM by Kinomescan method relative to control
[3] = molecular target: Casein kinase I isoform gamma-3 (Homo sapiens) (UniProt Q9Y6M4); experiment: Inhibition of wild-type human full length CK1G3 (M1 to K447 residues) expressed in bacterial expression system assessed as residual activity at 50 nM by Kinomescan method relative to control
[4] = molecular target: Phosphorylase b kinase gamma catalytic chain, skeletal muscle/heart isoform (Homo sapiens) (UniProt Q16816); experiment: Inhibition of wild-type human full length PHKG1 (M1 to Y387 residues) expressed in bacterial expression system assessed as residual activity at 50 nM by Kinomescan method relative to control
[5] = molecular target: Serine/threonine-protein kinase MARK2 (Homo sapiens) (UniProt Q7KZI7); experiment: Inhibition of wild-type human partial length MARK2 (M1 to R450 residues) expressed in bacterial expression system assessed as residual activity at 50 nM by Kinomescan method relative to control
[6] = molecular target: Mitogen-activated protein kinase 1 (Homo sapiens) (UniProt P28482); experiment: Inhibition of wild-type human full length ERK2 (M1 to S360 residues) expressed in bacterial expression system assessed as residual activity at 50 nM by Kinomescan method relative to control
[7] = molecular target: Angiopoietin-1 receptor (Homo sapiens) (UniProt Q02763); experiment: Inhibition of wild-type human partial length TIE2 (N804 to T1112 residues) expressed in bacterial expression system assessed as residual activity at 50 nM by Kinomescan method relative to control
[8] = molecular target: Serine/threonine-protein kinase Chk1 (Homo sapiens) (UniProt O14757); experiment: Inhibition of wild-type human partial length CHK1 (M1 to G289 residues) expressed in bacterial expression system assessed as residual activity at 50 nM by Kinomescan method relative to control
[9] = molecular target: Non-receptor tyrosine-protein kinase TYK2 (Homo sapiens, UniProt P29597); experiment: Inhibition of wild-type human partial length TYK2 JH2 pseudokinase domain (G556 to D888 residues) expressed in mammalian expression system assessed as residual activity at 50 nM by Kinomescan method relative to control
[10] = molecular target: Dual specificity tyrosine-phosphorylation-regulated kinase 2 (Homo sapiens) (UniProt Q92630); experiment: Inhibition of wild-type human full length DYRK2 (M1 to S528 residues) expressed in mammalian expression system assessed as residual activity at 50 nM by Kinomescan method relative to control
[11] = molecular target: Receptor tyrosine-protein kinase erbB-3 (Homo sapiens) (UniProt P21860); experiment: Inhibition of wild-type human partial length ERBB3 (G684 to A987 residues) expressed in mammalian expression system assessed as residual activity at 50 nM by Kinomescan method relative to control
[12] = molecular target: Casein kinase II subunit alpha (Homo sapiens) (UniProt P68400); experiment: Inhibition of wild-type human full length CK2A1 (M1 to Q391 residues) expressed in mammalian expression system assessed as residual activity at 50 nM by Kinomescan method relative to control
[13] = molecular target: Serine/threonine-protein kinase pim-1 (Homo sapiens) (UniProt P11309); experiment: Inhibition of wild-type human partial length PIM1 (A15 to K313 residues) expressed in bacterial expression system assessed as residual activity at 50 nM by Kinomescan method relative to control
[14] = molecular target: Wee1-like protein kinase 2 (Homo sapiens) (UniProt P0C1S8); experiment: Inhibition of wild-type human partial length WEE1B (M204 to K492 residues) expressed in bacterial expression system assessed as residual activity at 50 nM by Kinomescan method relative to control
[15] = molecular target: Ribosomal protein S6 kinase alpha-4 (Homo sapiens) (UniProt O75676); experiment: Inhibition of wild-type human partial length N-terminal MSK2 kinase domain 1 expressed in bacterial expression system assessed as residual activity at 50 nM by Kinomescan method relative to control
[16] = system: Phosphatidylinositol 4,5-bisphosphate 3-kinase catalytic subunit alpha isoform (Homo sapiens), P42336 [I800L]; experiment: Inhibition of human partial length PI3KCA I800L mutant (R108 to N1068 residues) expressed in mammalian expression system assessed as residual activity at 50 nM by Kinomescan method relative to control
[17] = molecular target: Mitogen-activated protein kinase 6 (Homo sapiens) (UniProt Q16659); experiment: Inhibition of wild-type human partial length ERK3 (M1 to P413 residues) expressed in bacterial expression system assessed as residual activity at 50 nM by Kinomescan method relative to control
[18] = system: Phosphatidylinositol 4,5-bisphosphate 3-kinase catalytic subunit alpha isoform (Homo sapiens), P42336 [E545A]; experiment: Inhibition of human partial length PIK3CA E545A mutant (R108 to N1068 residues) expressed in mammalian expression system assessed as residual activity at 50 nM by Kinomescan method relative to control
[19] = molecular target: Mitogen-activated protein kinase kinase kinase kinase 3 (Homo sapiens) (UniProt Q8IVH8); experiment: Inhibition of wild-type human partial length KHS2 (M1 to D301 residues) expressed in bacterial expression system assessed as residual activity at 50 nM by Kinomescan method relative to control
[20] = molecular target: Receptor tyrosine-protein kinase erbB-2 (Homo sapiens) (UniProt P04626); experiment: Inhibition of wild-type human partial length ERBB2 (K646 to V1225 residues) expressed in mammalian expression system assessed as residual activity at 50 nM by Kinomescan method relative to control
[21] = molecular target: Ephrin type-A receptor 1 (Homo sapiens) (UniProt P21709); experiment: Inhibition of wild-type human partial length EPHA1 (V588 to I913 residues) expressed in bacterial expression system assessed as residual activity at 50 nM by Kinomescan method relative to control
[22] = molecular target: Casein kinase I isoform gamma-1 (Homo sapiens) (UniProt Q9HCP0); experiment: Inhibition of wild-type human partial length CK1G1 (T15 to S353 residues) expressed in bacterial expression system assessed as residual activity at 50 nM by Kinomescan method relative to control
[23] = molecular target: Mitogen-activated protein kinase kinase kinase 2 (Homo sapiens) (UniProt Q9Y2U5); experiment: Inhibition of wild-type human partial length MAP3K2 (S315 to H619 residues) expressed in mammalian expression system assessed as residual activity at 50 nM by Kinomescan method relative to control
[24] = molecular target: Interferon-induced, double-stranded RNA-activated protein kinase (Homo sapiens) (UniProt P19525); experiment: Inhibition of wild-type human partial length PKR (F247 to C551 residues) expressed in bacterial expression system assessed as residual activity at 50 nM by Kinomescan method relative to control

SMILES | Activity [1] [%] | Activity [2] [%] | Activity [3] [%] | Activity [4] [%] | Activity [5] [%] | Activity [6] [%] | Activity [7] [%] | Activity [8] [%] | Activity [9] [%] | Activity [10] [%] | Activity [11] [%] | Activity [12] [%] | Activity [13] [%] | Activity [14] [%] | Activity [15] [%] | Activity [16] [%] | Activity [17] [%] | Activity [18] [%] | Activity [19] [%] | Activity [20] [%] | other results
COc1ccc(-c2cc3c(N[C@@H]4CC[C@](C)(N)C4(C)C)c(C(N)=O)cnn3c2)cn1 | 27 | 100 | 100 | 100 | 98 | 100 | 100 | 85 | 100 | 100 | 100 | 100 | 93 | 98 | 100 | 100 | 100 | 100 | 49 | 99 | Activity [21]: 93%; Activity [22]: 100%; Activity [23]: 46%; Activity [24]: 99%
CC1(C)[C@H](Nc2c(C(N)=O)cnn3cc(-c4ccccc4)cc23)CC[C@]1(C)N | 3 | 100 | 100 | 81 | 64 | 82 | 87 | 98 | 100 | 100 | 100 | 56 | 96 | 73 | 100 | 100 | 82 | 90 | 18 | 76 | Activity [21]: 80%; Activity [22]: 92%; Activity [23]: 30%; Activity [24]: 100%

Source: ChEMBL document CHEMBL4052645, “Discovery of potent and efficacious pyrrolopyridazines as dual JAK1/3 inhibitors” (Bioorg Med Chem Lett, 2017)
